Data: ChEMBL document CHEMBL1201862, “PubChem BioAssay data set” (2004)
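Grown in 96-well plates, cells were treated for 48 hours with each compound at five concentrations. Insufficient inhibition: endpoint recorded as highest concentration tested. GI50: concentration for 50% inhibition of growth.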 Calls of active or inactive are those of the source. Rule as the data show it: active = GI50 up to about 1.1 µM and inactive = higher.

Columns and labels:
Experiment in all cases: inhibition of tumour cell growth, NCI panel, 48 h
UACC-257 = system: UACC-257
CAKI-1 = system: CAKI-1
U-251 = system: U-251
HOP-92 = system: HOP-92
UACC-62 = system: UACC-62
NCI-H522 = system: NCI-H522
SF-539 = system: SF-539
SNB-75 = system: SNB-75
SNB-19 = system: SNB-19
OVCAR-3 = system: OVCAR-3
LOX IMVI = system: LOX IMVI
Malme-3M = system: Malme-3M
OVCAR-5 = system: OVCAR-5
HOP-62 = system: HOP-62
SW-620 = system: SW-620
EKVX = system: EKVX
M14 = system: M14

Measured: GI50

Cc1ccc2[nH]c(=O)c(C(C#N)c3ccccc3)nc2c1 (stereo not drawn)
inactive: UACC-257 59.8 µM | CAKI-1 34.6 µM | U-251 24.3 µM | HOP-92 32.7 µM | UACC-62 26.5 µM | NCI-H522 32.7 µM | SF-539 46.7 µM | SNB-75 30.5 µM | SNB-19 27.4 µM | OVCAR-3 23.6 µM | LOX IMVI 34.4 µM | Malme-3M 45.2 µM | OVCAR-5 55.3 µM | HOP-62 > 100 µM | SW-620 43.8 µM | EKVX 30.5 µM | M14 41.8 µM

S=C(Nc1ccccc1)N(/N=C/C=C/c1ccccc1)c1nnc(-c2ccccc2)c(-c2ccccc2)n1
inactive: UACC-257 38.9 µM | CAKI-1 50.7 µM | U-251 > 100 µM | HOP-92 18.7 µM | UACC-62 52.4 µM | NCI-H522 27.2 µM | SF-539 35.7 µM | SNB-75 > 100 µM | SNB-19 > 100 µM | OVCAR-3 38.6 µM | LOX IMVI 52.1 µM | Malme-3M 57.7 µM | OVCAR-5 > 100 µM | HOP-62 78.2 µM | SW-620 > 100 µM | EKVX 45.4 µM | M14 63.4 µM

O=c1c2cc(-c3ccccc3)sc2nc2sc(-c3ccccc3)nn12
inactive: UACC-257 > 100 µM | CAKI-1 > 100 µM | U-251 > 100 µM | HOP-92 > 100 µM | UACC-62 > 100 µM | NCI-H522 > 100 µM | SF-539 > 100 µM | SNB-75 > 100 µM | SNB-19 > 100 µM | OVCAR-3 > 100 µM | LOX IMVI > 100 µM | Malme-3M > 100 µM | OVCAR-5 > 100 µM | HOP-62 85.3 µM | SW-620 > 100 µM | EKVX > 100 µM | M14 > 100 µM

COc1cc(/C=N/N=C(\N)NO)c([N+](=O)[O-])cc1OC
inactive: UACC-257 73.1 µM | CAKI-1 20.4 µM | U-251 28.3 µM | HOP-92 29.2 µM | UACC-62 20.6 µM | NCI-H522 13.3 µM | SF-539 41 µM | SNB-75 27.5 µM | SNB-19 79.6 µM | OVCAR-3 34 µM | LOX IMVI 24.2 µM | Malme-3M 59.3 µM | OVCAR-5 37.2 µM | HOP-62 52.7 µM | SW-620 47.9 µM | EKVX 18.1 µM | M14 41.1 µM
